Where two headings read alike, the source gives them in different places.
Key:
CYP1A2 = biological target: T1, CYP1A2 (Homo sapiens, UniProt P05177); assay: Direct inhibition (DI) of CYP1A2 in human liver microsomes; assay type: in vitro ADME; conditions: probe Phenacetin, human liver microsomes 0.2 mg/mL, 10 μM compound, read-out: Direct inhibition (DI) 1A2 (Phenacetin)
T1 construct: A system of 100 μL human liver microsomes; from tissue; host or cells: human liver microsomes
T1 sequence (P05177 1-516): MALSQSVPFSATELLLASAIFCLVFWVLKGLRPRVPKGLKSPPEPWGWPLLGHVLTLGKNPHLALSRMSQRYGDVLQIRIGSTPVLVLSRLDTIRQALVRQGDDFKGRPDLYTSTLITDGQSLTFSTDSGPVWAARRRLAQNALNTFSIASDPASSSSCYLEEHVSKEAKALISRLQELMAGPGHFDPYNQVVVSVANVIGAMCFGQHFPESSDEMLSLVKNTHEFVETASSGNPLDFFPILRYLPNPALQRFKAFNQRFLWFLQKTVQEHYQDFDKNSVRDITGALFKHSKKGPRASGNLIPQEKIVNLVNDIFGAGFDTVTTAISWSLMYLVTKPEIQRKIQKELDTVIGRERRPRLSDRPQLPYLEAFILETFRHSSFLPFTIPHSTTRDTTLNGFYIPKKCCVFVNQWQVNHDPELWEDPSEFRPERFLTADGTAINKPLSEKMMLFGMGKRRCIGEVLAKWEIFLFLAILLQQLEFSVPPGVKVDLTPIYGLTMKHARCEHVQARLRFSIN
Procedure: (§1) Study on Direct Inhibition (DI) of CYP3A4, CYP2D6, CYP2C9, CYP2C19, CYP1A2
(§2) A system of 100 μL human liver microsomes (final concentration: 0.2 mg/mL) was used for direct inhibition under warm incubation. The system contained NADPH (final concentration: 1 mM), 10 μM compound, a positive inhibitor cocktail (Ketoconazole 10 μM, Quinidine: 10 μM, Sulfaphenazole: 100 μM, Naphthoflavone: 10 μM, Tranylcypromene 1000 μM), a negative control 10 μM DMSO and mixed probe substrates (Midazolam 10 μM, Testosterone 100 μM, Dextromethophan 10 μM, Diclofenac 20 μM, Phenetin 100 μM, Mephenytoin 100 μM). The reaction was terminated after incubation for 20 minutes. The relative activity of the enzymes was calculated by measuring the relative production of metabolites.

[1] = test system: BT-474 (human breast cancer cell); assay: In vitro proliferation inhibition assay of cell lines (CellTiter-Glo), BT-474; assay type: cell-based; conditions: BT-474 cells, 72 hours
Procedure: (§3) In Vitro Proliferation Inhibition Assay of Cell Lines
1. […] 2. Dosing to the cells: on the second day of the experiment, the microplate was taken out from the incubator, and 10 μL of 10× compound was added to each well of the microplate, setting 2 duplicate wells for each drug concentration and 9 dosing concentrations for each compound. According to different cell lines, the initial concentration of each compound was different. Upon completion of addition, the microplate was placed under the conditions of 37° C. and 5% CO2 for 72 hours. 3. Data acquisition: the microplate was taken out from the incubator and was allowed to equilibrate at room temperature for 30 minutes. 100 μL of CellTiter-Glo® Luminescent Cell Viability Assay reaction solution which had been equilibrated at room temperature was added to each well, and the reaction solution was shaken at 1300 rpm for 2 minutes at room temperature. After that, the microplate was placed in HERAEUS Multifuge X1R centrifuge, centrifuged at 2000 rpm for 1 minute, and allowed to equilibrate at room temperature for 10 minutes. The fluorescence signal value was measured on EnVision™.

[2] = test system: N87 (human gastric cancer cell NCI-N87); assay: In vitro proliferation inhibition assay of cell lines (CellTiter-Glo), N87; assay type: cell-based; conditions: N87 cells, 72 hours
Procedure: as §3
1. Cell culture and inoculation: on the first day of the experiment, normal cultured cells were taken, and in the exponential growth state, after digestion and dispersion, the cell density was then adjusted to 8.8×10^4 cells/mL for BT-474, and 6.6×10^4 cells/mL for N87, and 90 μL of which were inoculated to each well of a 96-well cell culture plate; after the inoculation was completed, the microplate was cultured under the conditions of 37° C. and 5% CO2 overnight. 2. Dosing to the cells: on the second day of the experiment, the microplate was taken out from the incubator, and 10 μL of 10× compound was added to each well of the microplate, setting 2 duplicate wells for each drug concentration and 9 dosing concentrations for each compound. According to different cell lines, the initial concentration of each compound was different. Upon completion of addition, the microplate was placed under the conditions of 37° C. and 5% CO2 for 72 hours. 3. Data acquisition: the microplate was taken out from the incubator and was allowed to equilibrate at room temperature for 30 minutes. 100 μL of CellTiter-Glo® Luminescent Cell Viability Assay reaction solution which had been equilibrated at room temperature was added to each well, and the reaction solution was shaken at 1300 rpm for 2 minutes at room temperature. After that, the microplate was placed in HERAEUS Multifuge X1R centrifuge, centrifuged at 2000 rpm for 1 minute, and allowed to equilibrate at room temperature for 10 minutes. The fluorescence signal value was measured on EnVision™.

EGFR kinase = EGFR kinase (Homo sapiens, UniProt P00533); assay: EGFR/ErbB2 enzymatic experiment (HTRF kinEASE-TK), EGFR; assay type: biochemical; conditions: EGFR kinase 0.06 units/μL, ATP 1.65 μM; read-out: Kinase IC50 (nM) in vitro EGFR
Sequence of EGFR kinase (P00533 25-1210): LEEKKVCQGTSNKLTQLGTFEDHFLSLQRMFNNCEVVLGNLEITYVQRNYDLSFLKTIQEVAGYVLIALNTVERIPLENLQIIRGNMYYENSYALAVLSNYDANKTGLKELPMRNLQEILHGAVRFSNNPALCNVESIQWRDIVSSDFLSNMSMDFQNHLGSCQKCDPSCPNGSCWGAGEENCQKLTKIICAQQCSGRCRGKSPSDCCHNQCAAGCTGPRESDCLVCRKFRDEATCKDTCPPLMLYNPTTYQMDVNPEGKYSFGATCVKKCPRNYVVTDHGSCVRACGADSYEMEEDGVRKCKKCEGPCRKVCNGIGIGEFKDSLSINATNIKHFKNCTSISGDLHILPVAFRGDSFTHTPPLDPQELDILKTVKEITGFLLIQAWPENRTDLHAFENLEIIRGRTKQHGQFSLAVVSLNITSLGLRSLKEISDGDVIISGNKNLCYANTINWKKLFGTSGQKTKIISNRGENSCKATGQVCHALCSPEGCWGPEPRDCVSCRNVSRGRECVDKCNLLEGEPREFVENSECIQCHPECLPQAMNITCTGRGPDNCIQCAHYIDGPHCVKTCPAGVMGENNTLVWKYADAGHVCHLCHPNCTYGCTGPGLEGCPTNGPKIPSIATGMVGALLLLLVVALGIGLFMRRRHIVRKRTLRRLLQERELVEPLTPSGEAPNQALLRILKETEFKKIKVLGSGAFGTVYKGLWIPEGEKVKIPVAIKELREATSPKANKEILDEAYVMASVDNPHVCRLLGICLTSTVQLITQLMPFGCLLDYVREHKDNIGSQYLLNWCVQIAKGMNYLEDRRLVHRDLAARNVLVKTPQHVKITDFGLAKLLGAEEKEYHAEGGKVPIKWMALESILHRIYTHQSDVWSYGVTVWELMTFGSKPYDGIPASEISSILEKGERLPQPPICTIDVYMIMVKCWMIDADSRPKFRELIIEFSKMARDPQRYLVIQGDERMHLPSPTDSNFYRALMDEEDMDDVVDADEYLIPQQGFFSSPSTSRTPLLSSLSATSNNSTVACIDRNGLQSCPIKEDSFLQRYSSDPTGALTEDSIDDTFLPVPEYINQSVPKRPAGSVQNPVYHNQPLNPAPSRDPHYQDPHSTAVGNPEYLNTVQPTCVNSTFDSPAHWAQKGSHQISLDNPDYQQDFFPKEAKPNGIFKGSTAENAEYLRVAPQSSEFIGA
Procedure: (§4) EGFR/ErbB2 Enzymatic Experiment
(§5) Firstly, 1× reaction buffer required for the kinase was prepared, then 5× Enzymatic buffer (HEPES 20 mM pH 7.0, NaN3 0.1%, BSA 0.05%, sodium orthovanadate 0.5 mM) was diluted in HTRF kinEASE-TK kit by 1 time with deionized water, and 50 nM Supplement Enzymatic buffer (SEB REAGENT), 1 mM MnCl2, 5 mM MfCl2, 1 mM DTT were added. Secondly, 5× compound was prepared, and 10 mM test compound storage solution was diluted in multiple steps with DMSO in a 96-well compound plate to prepare 100× compound as an initial concentration, which was then used as the first concentration to carry out a 3-fold gradient dilution with DMSO to obtain a total of 10 concentrations. Then 1 μL of gradient diluent was added to 19 μL of 1× reaction buffer to prepare 5× compound for later use. Then 2 μL of 5× compound was transferred from the 96-well plate into a 384-well plate. To the compound-free control wells was added 2 μL of the following liquid: 19 μL of 1× reaction buffer with addition of 1 μL of DMSO. To the blank control well was added 2 μL of 250 mM EDTA. […] In the fourth step of reaction termination, HTRF Detection buffer was used to prepare a mixture of 2×TK Antibody-EU (K) and Sa-XL665, and the amount of TK Antibody-EU (K) was 5 μL per well. After the enzyme reaction was carried out for 30 minutes, 10 μL of the above liquid was added to a 384-well plate, and the reaction was carried out at room temperature for 1 hour. […] RFU665 nM and RFU620 nM were measured, and RFU665 nM/RFU620 nM×10000 was used as final data for analysis.

CYP3A4 = biological target: T2, CYP3A4 (Homo sapiens, UniProt P08684); assay: Direct inhibition (DI) of CYP3A4 in human liver microsomes; assay type: in vitro ADME; conditions: human liver microsomes 0.2 mg/mL, 10 μM compound
T2 construct: A system of 100 μL human liver microsomes; from tissue; host or cells: human liver microsomes
T2 sequence (P08684 whole entry): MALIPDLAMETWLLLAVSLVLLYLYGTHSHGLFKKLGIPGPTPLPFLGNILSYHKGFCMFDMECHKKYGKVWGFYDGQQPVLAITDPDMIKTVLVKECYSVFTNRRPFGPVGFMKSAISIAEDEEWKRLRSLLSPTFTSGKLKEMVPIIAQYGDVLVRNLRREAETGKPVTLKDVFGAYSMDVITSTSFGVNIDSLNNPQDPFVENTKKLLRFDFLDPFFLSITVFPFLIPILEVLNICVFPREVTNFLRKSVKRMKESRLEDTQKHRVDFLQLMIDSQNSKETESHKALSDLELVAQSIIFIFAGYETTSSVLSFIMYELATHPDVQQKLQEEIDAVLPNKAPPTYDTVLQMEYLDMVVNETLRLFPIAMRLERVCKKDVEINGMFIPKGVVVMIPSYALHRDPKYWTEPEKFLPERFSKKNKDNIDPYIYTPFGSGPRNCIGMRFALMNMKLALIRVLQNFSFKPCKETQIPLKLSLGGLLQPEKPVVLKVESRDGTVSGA
Procedure: as §1, §2

CYP2C19 = biological target: T3, CYP2C19 (Homo sapiens, UniProt P33261); assay: Direct inhibition (DI) of CYP2C19 in human liver microsomes; assay type: in vitro ADME; conditions: probe Mephenytoin, human liver microsomes 0.2 mg/mL, 10 μM compound, read-out: Direct inhibition (DI) 2C19 (Mephenytoin)
T3 construct: A system of 100 μL human liver microsomes; from tissue; host or cells: human liver microsomes
T3 sequence (P33261 whole entry): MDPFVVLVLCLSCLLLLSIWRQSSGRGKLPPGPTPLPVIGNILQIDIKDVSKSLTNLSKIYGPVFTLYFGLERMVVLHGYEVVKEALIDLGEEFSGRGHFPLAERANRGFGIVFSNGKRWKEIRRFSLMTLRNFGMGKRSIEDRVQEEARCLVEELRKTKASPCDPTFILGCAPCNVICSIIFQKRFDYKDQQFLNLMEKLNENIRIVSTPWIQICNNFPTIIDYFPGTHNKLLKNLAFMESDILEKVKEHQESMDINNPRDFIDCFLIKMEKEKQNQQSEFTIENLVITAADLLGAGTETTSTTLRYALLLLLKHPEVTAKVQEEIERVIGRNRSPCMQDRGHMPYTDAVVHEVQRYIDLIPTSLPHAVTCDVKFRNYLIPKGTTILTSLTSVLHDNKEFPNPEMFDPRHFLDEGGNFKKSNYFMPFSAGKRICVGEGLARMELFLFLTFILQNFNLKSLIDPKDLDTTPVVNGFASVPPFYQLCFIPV
Procedure: as §1, §2

CYP2C9 = biological target: T4, CYP2C9 (Homo sapiens, UniProt P11712); assay: Direct inhibition (DI) of CYP2C9 in human liver microsomes; assay type: in vitro ADME; conditions: probe Diclofenac, human liver microsomes 0.2 mg/mL, 10 μM compound, read-out: Direct inhibition (DI) 2C9 (Diclofenac)
T4 construct: A system of 100 μL human liver microsomes; from tissue; host or cells: human liver microsomes
T4 sequence (P11712 whole entry): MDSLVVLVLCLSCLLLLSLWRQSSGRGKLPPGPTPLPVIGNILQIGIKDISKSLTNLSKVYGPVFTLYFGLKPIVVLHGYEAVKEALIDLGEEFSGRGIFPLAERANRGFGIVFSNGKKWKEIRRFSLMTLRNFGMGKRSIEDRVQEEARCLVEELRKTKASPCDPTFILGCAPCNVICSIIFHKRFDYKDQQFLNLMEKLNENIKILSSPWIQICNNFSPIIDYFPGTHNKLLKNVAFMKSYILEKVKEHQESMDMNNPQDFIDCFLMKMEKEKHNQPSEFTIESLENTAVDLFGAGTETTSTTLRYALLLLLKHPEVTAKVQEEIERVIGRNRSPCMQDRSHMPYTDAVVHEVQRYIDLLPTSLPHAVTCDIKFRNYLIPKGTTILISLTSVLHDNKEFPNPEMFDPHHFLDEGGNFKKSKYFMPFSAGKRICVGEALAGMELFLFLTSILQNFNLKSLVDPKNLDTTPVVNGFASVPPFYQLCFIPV
Procedure: as §1, §2

ErbB2 kinase = biological target: T5, ErbB2 kinase (Homo sapiens, UniProt P04626); assay: EGFR/ErbB2 enzymatic experiment (HTRF kinEASE-TK), ErbB2; assay type: biochemical; conditions: ErbB2 kinase 0.06 ng/μL, ATP 4 μM; read-out: Kinase IC50 (nM) in vitro ErbB2
T5 construct: The final concentration of ErbB2 kinase was 0.06 ng/μL
T5 sequence (P04626 23-1255): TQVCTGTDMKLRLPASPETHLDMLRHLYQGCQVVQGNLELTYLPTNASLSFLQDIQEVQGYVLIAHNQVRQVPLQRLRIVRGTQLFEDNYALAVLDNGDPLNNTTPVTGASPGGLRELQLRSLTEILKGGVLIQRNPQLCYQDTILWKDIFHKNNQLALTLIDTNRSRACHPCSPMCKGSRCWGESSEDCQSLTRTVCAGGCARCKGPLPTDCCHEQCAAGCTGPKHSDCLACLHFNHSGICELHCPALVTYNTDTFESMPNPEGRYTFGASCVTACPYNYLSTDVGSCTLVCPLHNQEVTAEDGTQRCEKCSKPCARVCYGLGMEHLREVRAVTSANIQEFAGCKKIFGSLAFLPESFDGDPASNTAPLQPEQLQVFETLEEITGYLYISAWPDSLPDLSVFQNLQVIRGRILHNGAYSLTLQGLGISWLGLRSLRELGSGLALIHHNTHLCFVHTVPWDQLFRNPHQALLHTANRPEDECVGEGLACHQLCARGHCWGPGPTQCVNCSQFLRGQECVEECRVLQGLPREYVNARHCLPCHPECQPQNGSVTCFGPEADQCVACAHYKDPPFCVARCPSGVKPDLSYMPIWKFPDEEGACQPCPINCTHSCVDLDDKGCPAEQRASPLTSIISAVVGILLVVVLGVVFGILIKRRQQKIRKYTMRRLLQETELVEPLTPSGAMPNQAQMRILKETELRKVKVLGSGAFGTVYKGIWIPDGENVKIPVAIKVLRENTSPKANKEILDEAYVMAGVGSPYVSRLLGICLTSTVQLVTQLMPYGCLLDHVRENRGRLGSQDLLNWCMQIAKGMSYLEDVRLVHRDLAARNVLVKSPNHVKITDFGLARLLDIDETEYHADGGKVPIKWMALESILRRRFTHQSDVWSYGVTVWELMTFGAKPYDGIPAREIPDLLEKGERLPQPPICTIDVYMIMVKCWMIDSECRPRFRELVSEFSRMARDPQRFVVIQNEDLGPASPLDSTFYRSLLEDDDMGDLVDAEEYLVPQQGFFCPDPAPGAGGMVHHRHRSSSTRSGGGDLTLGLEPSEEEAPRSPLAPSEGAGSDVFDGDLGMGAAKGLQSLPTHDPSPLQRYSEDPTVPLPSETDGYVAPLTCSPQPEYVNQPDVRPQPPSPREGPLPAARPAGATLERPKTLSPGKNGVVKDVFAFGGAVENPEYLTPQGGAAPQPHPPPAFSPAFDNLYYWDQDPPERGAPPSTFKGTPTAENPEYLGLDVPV
Procedure: as §4, §5

CYP2D6 = biological target: T6, CYP2D6 (Homo sapiens, UniProt P10635); assay: Direct inhibition (DI) of CYP2D6 in human liver microsomes; assay type: in vitro ADME; conditions: probe Dextromethorphan, human liver microsomes 0.2 mg/mL, 10 μM compound, read-out: Direct inhibition (DI) 2D6 (Dextromethorphan)
T6 construct: A system of 100 μL human liver microsomes; from tissue; host or cells: human liver microsomes
T6 sequence (P10635 whole entry): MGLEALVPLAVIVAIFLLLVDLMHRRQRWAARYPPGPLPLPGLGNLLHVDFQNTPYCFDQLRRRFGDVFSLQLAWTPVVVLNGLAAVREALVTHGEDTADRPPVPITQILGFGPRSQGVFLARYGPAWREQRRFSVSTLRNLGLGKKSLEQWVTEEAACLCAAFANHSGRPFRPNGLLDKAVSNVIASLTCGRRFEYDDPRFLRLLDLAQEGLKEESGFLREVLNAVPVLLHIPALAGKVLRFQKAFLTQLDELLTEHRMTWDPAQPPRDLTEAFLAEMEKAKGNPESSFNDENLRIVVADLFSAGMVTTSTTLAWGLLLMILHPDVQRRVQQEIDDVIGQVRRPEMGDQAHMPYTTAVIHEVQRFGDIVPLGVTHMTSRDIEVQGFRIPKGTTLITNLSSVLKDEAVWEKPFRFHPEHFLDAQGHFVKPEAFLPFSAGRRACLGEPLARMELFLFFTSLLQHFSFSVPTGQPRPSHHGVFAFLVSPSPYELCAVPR
Procedure: as §1, §2

[3] = probe Midazolam, read-out: Direct inhibition (DI) 3A4 (Midazolam)
[4] = probe Testosterone, read-out: Direct inhibition (DI) 3A4 (testosterone)

SMILES	inhibition at 20 min, 10 µM (CYP1A2) [%]	IC50 [1] [nM]	IC50 [2] [nM]	IC50 (EGFR kinase) [nM]	inhibition at 20 min, 10 µM (CYP3A4; [3]) [%]	inhibition at 20 min, 10 µM (CYP3A4; [4]) [%]	inhibition at 20 min, 10 µM (CYP2C19) [%]	inhibition at 20 min, 10 µM (CYP2C9) [%]	IC50 (ErbB2 kinase) [nM]	inhibition at 20 min, 10 µM (CYP2D6) [%]
CCOc1cc2ncnc(Nc3ccc(Oc4ccn5ncnc5c4)c(C)c3)c2cc1NC(=O)/C(F)=C\[C@@H]1CCCN1C	23	5.9	3.1	50.9	14	32	43	21	4.6	38
C=CC(=O)N1CCCC(Nc2ccc3ncnc(Nc4ccc(Oc5cc6nncn6cn5)c(C)c4)c3c2)C1 (stereo in doubt) [Final product of Embodiment 8, (R)-1-(3-((4-((4-([1,2,4]triazolo[4,3-c]pyrimidin-7-yloxy)-3-methylphenyl)amino)quinazolin-6-yl)amino)piperidin-1-yl)propan-2-en-1-one]	11	10.3	19.4	136	61	72	28	17	17.5	11
C=CC(=O)NC1CCC=C(c2ccc3ncnc(Nc4ccc(Oc5cc6nncn6cn5)c(C)c4)c3c2)C1 (stereo not drawn) [Final product of Embodiment 1, N-(3-(4-((4-([1,2,4]triazolo[4,3-c]pyrimidin-7-yloxy)-3-methylphenyl)amino)quinazolin-6-yl)cyclohex-3-en-1-yl)acrylamide]	47	5.07	4.45	14.4	91	94	37	74	0.947	25
C=CC(=O)N[C@@H]1CCCN(c2ccc3ncnc(Nc4ccc(Oc5cc6nncn6cn5)c(C)c4)c3c2)C1 [Final product of Embodiment 3, (R)—N-(1-(4-((4-([1,2,4]triazolo[4,3-c]pyrimidin-7-yloxy)-3-methylphenyl)amino)quinazolin-6-yl)piperidin-3-yl) acrylamide]	14	15.3	15.6	24.3	54	61	9	26	3.83	4
Cc1cc(Nc2ncnc3ccc(NC(=O)/C=C/C4COCCN4)cc23)ccc1Oc1cc2nncn2cn1 (stereo not drawn) [Final product of Embodiment 27, (E)-N-(4-((4-([1,2,4]triazolo[4,3-c]pyrimidin-7-yloxy)-3-methylphenyl)amino)quinazolin-6-yl)-3-(morpholin-3-yl)acrylamide]	–	25.7	77.5	2.21	–	–	–	–	1.61	–
Cc1cc(Nc2ncnc3ccc(NC(=O)/C=C/[C@H]4CCCN4C)cc23)ccc1Oc1cnn2cnnc2c1 [Final product of Embodiment 29, (R,E)-N-(4-((4-([1,2,4]triazolo[4,3-b]pyridazin-7-yloxy)-3-methylphenyl)amino)quinazolin-6-yl)-3-(1-methylpyrrolidin-2-yl) acrylamide]	–	46.6	60.4	20.5	–	–	–	–	15.2	–
Cc1cc(Nc2c(C#N)cnc3ccc(NC(=O)/C=C/[C@H]4CCCN4C)cc23)ccc1Oc1cnc2c(cnn2C)c1 [Final product of Embodiment 31]	–	76	66.5	65.2	–	–	–	–	220	–
COCCOc1cc2ncnc(Nc3ccc(Oc4cc5nncn5cn4)c(C)c3)c2cc1NC(=O)/C=C/[C@H]1CCCN1 [Final product of Embodiment 35]	–	17.7	18.9	0.514	–	–	–	–	2.67	–
COCCOc1cc2ncnc(Nc3ccc(Oc4cc5nncn5cn4)c(C)c3)c2cc1NC(=O)/C=C/[C@H]1CCCN1C [Final product of Embodiment 36]	–	1.89	1.64	0.53	–	–	–	–	1.1	–
Cc1cc(Nc2ncnc3ccc(NC(=O)/C(F)=C\[C@H]4CCCN4C)cc23)ccc1Oc1ccn2ncnc2c1 [Final product of Embodiment 40]	< 0	–	–	–	3	9	18	< 0	–	16
